The results in this text go back to ChEMBL document CHEMBL1140127, “Enantiomeric propanolamines as selective N-methyl-D-aspartate 2B receptor antagonists” (J Med Chem, 2008).

For the test, the target named is Glutamate NMDA receptor; Grin1/Grin2b (Rattus norvegicus, UniProt P35439+Q00960). As to the kind of experiment: Inhibition of rat recombinant NR1/NR2B receptor expressed in Xenopus oocytes assessed as inhibition of glutamate and glycine-induced evoked current by two electrode voltage clamp method. Format: cell-based, Oocyte.
Sequence of Glutamate NMDA receptor; Grin1/Grin2b (Q00960 whole entry, other chains not shown): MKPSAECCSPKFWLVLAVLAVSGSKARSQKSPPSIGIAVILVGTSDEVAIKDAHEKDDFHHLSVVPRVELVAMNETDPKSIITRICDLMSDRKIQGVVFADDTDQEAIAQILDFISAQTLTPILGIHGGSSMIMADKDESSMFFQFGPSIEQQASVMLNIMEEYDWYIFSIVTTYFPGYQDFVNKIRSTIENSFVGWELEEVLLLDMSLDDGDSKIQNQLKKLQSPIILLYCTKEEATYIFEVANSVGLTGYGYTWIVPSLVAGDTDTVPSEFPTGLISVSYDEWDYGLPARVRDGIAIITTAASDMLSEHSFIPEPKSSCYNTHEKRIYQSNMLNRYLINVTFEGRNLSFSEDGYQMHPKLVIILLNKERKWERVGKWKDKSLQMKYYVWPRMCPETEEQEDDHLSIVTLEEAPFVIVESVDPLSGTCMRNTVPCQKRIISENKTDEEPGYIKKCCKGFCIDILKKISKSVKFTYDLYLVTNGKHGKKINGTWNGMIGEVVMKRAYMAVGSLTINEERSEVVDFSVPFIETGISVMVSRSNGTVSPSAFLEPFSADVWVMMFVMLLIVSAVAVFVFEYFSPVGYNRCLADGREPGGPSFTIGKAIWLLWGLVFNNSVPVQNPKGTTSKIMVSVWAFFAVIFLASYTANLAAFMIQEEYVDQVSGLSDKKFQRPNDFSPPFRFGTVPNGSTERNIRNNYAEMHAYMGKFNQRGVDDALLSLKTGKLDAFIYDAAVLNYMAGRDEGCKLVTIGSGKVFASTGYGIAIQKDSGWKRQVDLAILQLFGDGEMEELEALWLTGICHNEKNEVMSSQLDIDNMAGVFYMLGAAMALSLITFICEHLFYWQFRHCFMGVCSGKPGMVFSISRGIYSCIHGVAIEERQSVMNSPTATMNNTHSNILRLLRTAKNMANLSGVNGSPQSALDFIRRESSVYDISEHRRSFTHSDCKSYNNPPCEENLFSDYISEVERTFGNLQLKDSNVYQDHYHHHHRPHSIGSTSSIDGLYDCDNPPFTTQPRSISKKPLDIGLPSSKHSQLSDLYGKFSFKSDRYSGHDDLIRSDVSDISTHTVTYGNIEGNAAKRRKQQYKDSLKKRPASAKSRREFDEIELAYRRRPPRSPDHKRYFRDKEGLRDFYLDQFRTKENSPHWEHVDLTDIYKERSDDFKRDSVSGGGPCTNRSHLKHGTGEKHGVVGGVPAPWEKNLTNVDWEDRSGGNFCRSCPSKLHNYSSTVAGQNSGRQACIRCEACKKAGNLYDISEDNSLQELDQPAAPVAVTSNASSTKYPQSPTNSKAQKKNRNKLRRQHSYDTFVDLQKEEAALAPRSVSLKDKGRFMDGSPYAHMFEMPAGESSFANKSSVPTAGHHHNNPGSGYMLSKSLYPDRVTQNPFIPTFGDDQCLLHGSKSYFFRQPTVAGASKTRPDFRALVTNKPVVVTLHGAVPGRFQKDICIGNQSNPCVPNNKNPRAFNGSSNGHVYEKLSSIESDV

As for `CS(=O)(=O)Nc1ccc(OC[C@@H](O)CN(CCc2ccc(Cl)c(Cl)c2)Cc2c(F)c(F)c(F)c(F)c2F)cc1`, the IC50 was found to be 524 nM.
In the case of `CS(=O)(=O)Nc1ccc(OC[C@@H](O)CN(CCc2ccc(Cl)c(Cl)c2)Cc2ccccc2[N+](=O)[O-])cc1`, the IC50 was found to be 589 nM.
As for `CCCS(=O)(=O)Nc1ccc(OC[C@@H](O)CNCCc2ccc(Cl)c(Cl)c2)cc1`, the IC50 was determined as 6100 nM.
As for `CS(=O)(=O)Nc1cccc(OC[C@@H](O)CNCCc2ccc(Cl)c(Cl)c2)c1`, the IC50 was 530 nM.
Turning to `CN(c1ccc(OC[C@@H](O)CNCCc2ccc(Cl)c(Cl)c2)cc1)S(C)(=O)=O`, the IC50 turned out to be 9910 nM.
`CCCCS(=O)(=O)Nc1ccc(OC[C@@H](O)CNCCc2ccc(Cl)c(Cl)c2)cc1`: the IC50 worked out at 6790 nM.
For `CS(=O)(=O)Nc1ccc(OC[C@@H](O)CN(CCc2ccc(Cl)c(Cl)c2)Cc2ccc(O)cc2O)cc1`, the IC50 came to 146 nM.
For the molecule `CS(=O)(=O)Nc1ccc(OC[C@@H](O)CN(CCc2ccc(Cl)c(Cl)c2)Cc2ccc(F)cc2)cc1`, the IC50 amounted to 275 nM.
The figure for `CS(=O)(=O)Nc1ccc(OC[C@@H](O)CN(CCc2ccc(Cl)c(Cl)c2)Cc2cccc(F)c2)cc1` is 249 nM; for `CS(=O)(=O)Nc1ccc(OC[C@@H](O)CNCCc2ccc([N+](=O)[O-])cc2)cc1` it is 1140 nM; for `CCCN(CCc1ccc(Cl)c(Cl)c1)C[C@H](O)COc1ccc(NS(C)(=O)=O)cc1` it is 635 nM.
Consider `CS(=O)(=O)Nc1ccc(OC[C@@H](O)CNCCc2ccc3c(c2)OCO3)cc1`, for which the IC50 was found to be 951 nM.
For the molecule `CS(=O)(=O)Nc1ccc(OC[C@@H](O)CN(CCc2ccc(Cl)c(Cl)c2)Cc2c(F)cccc2F)cc1`, the IC50 was found to be 281 nM.
In the case of `CS(=O)(=O)Nc1ccc(OC[C@@H](O)CN(CCc2ccc(Cl)c(Cl)c2)Cc2ccccc2Br)cc1`, the IC50 came to 38 nM.
The value for `CS(=O)(=O)Nc1ccc(OC[C@@H](O)CNCCc2ccc(Cl)c(Cl)c2)cc1F` was 427 nM.
Regarding `CC(=O)Oc1ccccc1CN(CCc1ccc(Cl)c(Cl)c1)C[C@H](O)COc1ccc(NS(C)(=O)=O)cc1`, the IC50 stood at 500 nM.
Take `CS(=O)(=O)Nc1ccc(OC[C@@H](O)CNCCc2ccc(Cl)c(Cl)c2)c(F)c1`: the IC50 turned out to be 72 nM.
For the molecule `COc1cccc(OC)c1CN(CCc1ccc(Cl)c(Cl)c1)C[C@H](O)COc1ccc(NS(C)(=O)=O)cc1`, the IC50 worked out at 11900 nM.
In the case of `CS(=O)(=O)Nc1ccc(OC[C@H](O)CN(CCc2ccc(Cl)c(Cl)c2)Cc2cccc(O)c2)cc1`, the IC50 came to 409 nM.
`COc1cccc(CN(CCc2ccc(Cl)c(Cl)c2)C[C@H](O)COc2ccc(NS(C)(=O)=O)cc2)c1OC`: the IC50 came out at 2790 nM.
Turning to `CS(=O)(=O)Nc1ccc(OC[C@@H](O)CN(CCc2ccc(Cl)c(Cl)c2)CC2CCCCC2)cc1`, the IC50 was determined as 9840 nM.
For `CS(=O)(=O)Nc1ccc(OC[C@@H](O)CNCCc2ccccc2Cl)cc1`, the IC50 is 429 nM.
The value for `CC(=O)Nc1ccc(OC[C@@H](O)CNCCc2ccc(Cl)c(Cl)c2)cc1` was 4370 nM; that for `O=S(=O)(Nc1ccc(OC[C@@H](O)CNCCc2ccc(Cl)c(Cl)c2)cc1)c1ccccc1` was 1450 nM; that for `CS(=O)(=O)Nc1ccc(OC[C@@H](O)CN(CCc2ccc(Cl)c(Cl)c2)Cc2nccs2)cc1` was 3580 nM.
Consider `CN(CCc1ccc(Cl)c(Cl)c1)C[C@@H](O)COc1ccc(NS(C)(=O)=O)cc1`, for which the IC50 came to 253 nM.
The value for `CS(=O)(=O)Nc1ccc(OC[C@@H](O)CN(CCc2ccc(Cl)c(Cl)c2)CCc2ccccc2O)cc1` was 755 nM.
In the case of `CS(=O)(=O)Nc1ccc(OC[C@@H](O)CNCCc2cc(O)cc(O)c2)cc1`, the IC50 was greater than 100000 nM.
Consider `CS(=O)(=O)Nc1ccc(OC[C@@H](O)CNCCc2cccc(Cl)c2)cc1`, for which the half-maximal inhibitory concentration (IC50) came out at 628 nM.
The value for `Cc1ccccc1CN(CCc1ccc(Cl)c(Cl)c1)C[C@H](O)COc1ccc(NS(C)(=O)=O)cc1` was 5700 nM; that for `CS(=O)(=O)Nc1ccc(OC[C@@H](O)CNCCc2ccc(O)cc2)cc1` was 7240 nM; that for `CCCCN(CCc1ccc(Cl)c(Cl)c1)C[C@@H](O)COc1ccc(NS(C)(=O)=O)cc1` was 1280 nM.
As to `CS(=O)(=O)Nc1ccc(OC[C@@H](O)CNCCc2ccc(Cl)cc2Cl)cc1`, the IC50 was 2320 nM.
As to `CS(=O)(=O)Nc1ccc(OC[C@@H](O)CN(CCc2ccc(Cl)c(Cl)c2)Cc2cccc3c2OCO3)cc1`, the IC50 amounted to 5010 nM.
In the case of `CS(=O)(=O)Nc1ccccc1OC[C@@H](O)CNCCc1ccc(Cl)c(Cl)c1`, the IC50 is 12000 nM.
The value for `CS(=O)(=O)Nc1ccc(OC[C@@H](O)CNCCc2cccc(O)c2)cc1` was 4430 nM; that for `CS(=O)(=O)Nc1ccc(OC[C@@H](O)CNCCc2ccc(F)c(Cl)c2)cc1` was 397 nM.
Consider `CCCCCN(CCc1ccc(Cl)c(Cl)c1)C[C@H](O)COc1ccc(NS(C)(=O)=O)cc1`, for which the IC50 is 659 nM.
Turning to `CS(=O)(=O)Nc1ccc(OC[C@H](O)CNCCc2ccc(Cl)c(Cl)c2)cc1`, the IC50 worked out at 188 nM.
With `CS(=O)(=O)Nc1ccc(OC[C@@H](O)CNCCc2ccc(F)cc2)cc1`, the IC50 came to 748 nM.
On to `CS(=O)(=O)Nc1ccc(OC[C@@H](O)CN(CCc2ccccc2)CCc2ccc(Cl)c(Cl)c2)cc1`, for which the IC50 is 3510 nM.
`CS(=O)(=O)Nc1ccc(OC[C@H](O)CN(CCc2ccc(Cl)c(Cl)c2)Cc2ccccc2O)cc1`: the IC50 was 433 nM.
For `CS(=O)(=O)Nc1ccc(OC[C@@H](O)CNCCc2ccccc2O)cc1`, the half-inhibitory concentration (IC50) was determined as 2000 nM.
On to `CC(C)N(CCc1ccc(Cl)c(Cl)c1)C[C@H](O)COc1ccc(NS(C)(=O)=O)cc1`, for which the IC50 stood at 603 nM.
For `CCS(=O)(=O)Nc1ccc(OC[C@@H](O)CNCCc2ccc(Cl)c(Cl)c2)cc1`, the IC50 amounted to 587 nM.
As for `CS(=O)(=O)Nc1ccc(OC[C@@H](O)CN(CCc2ccc(Cl)c(Cl)c2)Cc2ccccc2Cl)cc1`, the IC50 was found to be 479 nM.
As for `CS(=O)(=O)Nc1ccc(OC[C@@H](O)CN(CCc2ccc(Cl)c(Cl)c2)Cc2ccc(O)cc2)cc1`, the IC50 turned out to be 113 nM.
The figure for `Cc1ccc(CN(CCc2ccc(Cl)c(Cl)c2)C[C@H](O)COc2ccc(NS(C)(=O)=O)cc2)cc1` is 5410 nM; for `O=C(Nc1ccc(OC[C@@H](O)CNCCc2ccc(Cl)c(Cl)c2)cc1)C(Cl)Cl` it is 12800 nM; for `CS(=O)(=O)Nc1ccc(OC[C@@H](O)CNCCc2ccc(O)c(O)c2)cc1` it is greater than 100000 nM.
The value for `CS(=O)(=O)Nc1ccc(OC[C@H](O)CN(CCO)CCc2ccc(Cl)c(Cl)c2)cc1` was 173 nM; that for `CS(=O)(=O)Nc1ccc(OC[C@@H](O)CN(CCc2ccc(Cl)c(Cl)c2)Cc2cccc(O)c2O)cc1` was 1820 nM; that for `CS(=O)(=O)Nc1ccc(OC[C@@H](O)CNCCc2cccc(F)c2)cc1` was 853 nM.
In the case of `CS(=O)(=O)Nc1ccc(OC[C@@H](O)CN(CCc2ccc(Cl)c(Cl)c2)Cc2ccccc2)cc1`, the IC50 turned out to be 177 nM.
Take `CS(=O)(=O)Nc1ccc(OC[C@@H](O)CN(CCc2ccc(Cl)c(Cl)c2)Cc2ccccc2C(F)(F)F)cc1`: the IC50 was found to be 3720 nM.
Turning to `Cc1cc(OC[C@@H](O)CNCCc2ccc(Cl)c(Cl)c2)ccc1NS(C)(=O)=O`, the IC50 turned out to be 687 nM.
Regarding `O=[N+]([O-])c1ccc(OC[C@@H](O)CNCCc2ccc(Cl)c(Cl)c2)cc1`, the half-maximal inhibitory concentration (IC50) is 9380 nM.
For the molecule `CS(=O)(=O)Nc1ccc(OC[C@@H](O)CN(CCc2ccc(Cl)c(Cl)c2)Cc2cccnc2)cc1`, the IC50 stood at 278 nM.
Regarding `CS(=O)(=O)Nc1ccc(OC[C@@H](O)CNCCc2ccccc2F)cc1`, the IC50 was 573 nM.
Turning to `C[C@H](NC[C@H](O)COc1ccc(NS(C)(=O)=O)cc1)c1cccc2ccccc12`, the IC50 came out at 5070 nM.
As to `O=C(Nc1ccc(OC[C@@H](O)CNCCc2ccc(Cl)c(Cl)c2)cc1)C(Cl)(Cl)Cl`, the IC50 came to 10600 nM.
Consider `COc1ccccc1CN(CCc1ccc(Cl)c(Cl)c1)C[C@H](O)COc1ccc(NS(C)(=O)=O)cc1`, for which the IC50 was 3860 nM.
